# Test results as given in patent US20190216089A1, “COMPOUNDED HERBICIDAL COMPOSITION CONTAINING SHUANGZUOCAOTONG AND METHOD OF USING THE SAME” (priority 2016, published 2019).
# What was measured:
# [1] = system: Capsella bursa-pastoris; experiment: Pot-culture greenhouse foliage treatment, fresh weight inhibition (Gowing method); type: in vivo; conditions: foliage spray
# Procedure: (§1) The above weeds were cultivated by a pot culture method. […] Full and uniform weed seeds were selected, soaked in warm water at 25° C. for 6 hours, and germinated in a 28° C. biochemical incubator (darkness). […] A certain amount of water was added to the enamel pan regularly to keep the soil moist.
# (§2) Since these several agents were soluble in acetone, any two TCs were dissolved in acetone, and diluted with an aqueous solution containing 0.1% emulsifier T-80. The dilution was performed as required.
# (§3) A ratio of glufosinate ammonium or glyphosate and shuangzuocaotong and amounts thereof in each group depends on the characteristics and toxicity of the two agents, as well as the main application purpose of a corresponding formulation. Glyphosate is a non-selective herbicide and is absorbed by foliage and translocated to various parts of the plant, which is different from the mechanism of action of glufosinate ammonium, i.e., killing roots. […] The control spectrum of Shuangzuocaotong is complementary to that of glyphosate or that of glufosinate ammonium to some extent. […] Based on the pre-tests in this study, the doses of glyphosate, glufosinate ammonium, and Shuangzuocaotong applied alone and in combination were shown in the Table 1 and Table 2, and a total 15 groups were designed, respectively. Water containing the solvent and emulsifying agent same with the above groups but free of the agents was used as a blank control.
# (§4) 3 pots with 20 weed seeds per pot were treated in one treatment with […] per treatment, that is, a total of 60 weeds were treated in one treatment.
# (§5) The agents were used for only once in the experiment. In the stage of weeds with 2 leaves and 1 core, the weeds were thinned out to maintain 15 weeds per pot and 45 weeds for each treatment, then continued to be cultured until the four true leaves of Descurainia sophia and Capsella bursa-pastoris emerged, and treated.
# (§6) The well-cultured weeds were evenly placed on a platform with an area of 0.5 m^2, and a solution of agents was sprayed on the foliage thereof by the 3WP-2000-type walking spray tower at a dosage of 30 kg/ha and at a spray pressure of 0.3 MPa. After all the solution was sprayed, the valve was closed. After 30 seconds, the door of the spray tower was opened, and the nutritional bowl was taken out. Then the valve was opened, and the spray tube was cleaned by spraying 50 ml of water.
# (§7) A pot-culture method was employed. For the cultivation of weeds, please refer to the Section 1.1, and “Pesticide guidelines for laboratory bioactivity tests—herbicides”. As to a method for applying agents, please refer to the section 2.3.2, that is, a method for foliage treatment was employed.
# (§8) A method for investigating absolute number was employed, wherein whole seedlings of survival weeds were cut off with a blade along the soil surface, and the fresh weight of the weeds was weighed with an analytical balance. For dead weeds, the fresh weight thereof was zero.
# (§9) The investigation was performed after 20 days of the treatment for only once.
# [2] = system: Descurainia Sophia; experiment: as above; type: in vivo; conditions: foliage spray
# Procedure: as §1, §2, §3, §4, §5, §6, §7, §8, §9
# [3] = dose 67.5 g/hm^2, after 20 days (Table 2)
# [4] = dose 90 g/hm^2, after 20 days (Table 2)
# [5] = dose 112.5 g/hm^2, after 20 days (Table 2)
# [6] = dose 1125 g/hm^2, after 20 days
smiles,measurement,setting,value
"CP(=O)(O)CCC(N)C(=O)O.N (racemic) [Glufosinate ammonium, ammonium-DL-homoalanin-4-yl(methyl)phosphinate]",actual fresh weight inhibition rate,"[1]; dose 300 g/hm^2, after 20 days",48.2%
same,actual fresh weight inhibition rate,"[1]; dose 450 g/hm^2, after 20 days",73.2%
same,actual fresh weight inhibition rate,"[1]; dose 600 g/hm^2, after 20 days",93.5%
same,actual fresh weight inhibition rate,"[2]; dose 300 g/hm^2, after 20 days",49.8%
same,actual fresh weight inhibition rate,"[2]; dose 450 g/hm^2, after 20 days",71.6%
same,actual fresh weight inhibition rate,"[2]; dose 600 g/hm^2, after 20 days",92.6%
Cc1nn(C)cc1C(=O)Oc1c(C(=O)c2ccc(C(F)(F)F)cc2S(C)(=O)=O)c(C)nn1C [Shuangzuocaotong],actual fresh weight inhibition rate,"[1]; dose 15 g/hm^2, after 20 days",53.2%
same,actual fresh weight inhibition rate,"[1]; dose 30 g/hm^2, after 20 days",75.2%
same,actual fresh weight inhibition rate,"[1]; dose 45 g/hm^2, after 20 days",91.3%
same,actual fresh weight inhibition rate,[1]; [3],54.1%
same,actual fresh weight inhibition rate,[1]; [4],72.4%
same,actual fresh weight inhibition rate,[1]; [5],93.5%
same,actual fresh weight inhibition rate,"[2]; dose 15 g/hm^2, after 20 days",54.2%
same,actual fresh weight inhibition rate,"[2]; dose 30 g/hm^2, after 20 days",76.2%
same,actual fresh weight inhibition rate,"[2]; dose 45 g/hm^2, after 20 days",90.2%
same,actual fresh weight inhibition rate,[2]; [3],53.3%
same,actual fresh weight inhibition rate,[2]; [4],74.3%
same,actual fresh weight inhibition rate,[2]; [5],86.2%
"O=C(O)CNCP(=O)(O)O [glyphosate, N-(phosphonomethyl)glycine]",actual fresh weight inhibition rate,"[1]; dose 675 g/hm^2, after 20 days",53.2%
same,actual fresh weight inhibition rate,"[1]; dose 900 g/hm^2, after 20 days",74.6%
same,actual fresh weight inhibition rate,[1]; [6],92.4%
same,actual fresh weight inhibition rate,"[2]; dose 675 g/hm^2, after 20 days",55.2%
same,actual fresh weight inhibition rate,"[2]; dose 900 g/hm^2, after 20 days",73.1%
same,actual fresh weight inhibition rate,[2]; [6],91.4%
